# Test results taken from PMC8162438, “Cancer cell-selective modulation of mitochondrial respiration and metabolism by potent organogold(III) dithiocarbamates” (Chemical Science, 2020).
# Test system: MDA-MB-231
# Experiment: Seahorse XF96 mitochondria stress test (OCR), MDA-MB-231
# Assay type: cell-based
# Source text: With the previous biological data pointing towards metabolic changes, we sought to explore further the effect 2a had on redox metabolism. The ETC is a complicated biological system that is constantly changing in response to external stress in order to achieve redox homeostasis within the cell. With the DEG data alluding to involvement of ETC genes (Fig. 9A), we then decided to look in depth at the effect of complexes on these biological parameters. We next performed oxygen consumption rate (OCR) experiments by Seahorse 96XF to quantify the effect of 2a on mitochondrial bioenergetics or stress (MitoStress) (Fig. 9B and C).[87] A series of known inhibitors of the various parts of the ETC that allow for the measurement of specific parameters were used. […] ATP linked respiration was also calculated and found to be decreased by more than 80% at 3 μM treatment (Fig. 9F). […]
# For the wells that were pre-treated with NAC, a stock solution of NAC in DMEM was added at a concentration of 10 mM for 2 h prior to the addition of 2a. […] The cells were then analyzed using FACS with the FITC channel […]
# Mitochondrial Metabolism Analysis with Seahorse XF96 Analysis. […] The optimum conditions were determined to be 30,000 cells/well and an FCCP injection concentration of 0.6 µM. […]
compound,measurement,setting,value
C[N+](C)=C1[S][Au-2]2([S]1)[c]1ccccc1Cc1cccc[n+]12.F[P-](F)(F)(F)(F)F (centres unmarked) [2a],Decrease of maximal OCR,"MDA-MB-231, 1 μM, within 50 minutes, compared to control",more than 25%
same,Decrease of basal OCR,"MDA-MB-231, 3 μM, 17 minutes from injection",more than 20%
